Results as given in ChEMBL document CHEMBL1201861, “Genomics of Drug Sensitity in Cancer screening data, Wellcome Trust Sanger Institute”.

Experiments:
Assay in all cases: cells
[1] = tested on: EFM-19; type: functional, cell-based; conditions: Homo sapiens;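 further: growth inhibition of human EFM-19 cells, measured in a cell viability assay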
Description: SANGER: Inhibition of human EFM-19 cell growth in a cell viability assay.

[2] = tested on: HGC-27; type: functional, cell-based; conditions: Homo sapiens;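 further: growth inhibition of human HGC-27 cells, read out in a cell viability assay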
Description: SANGER: Inhibition of human HGC-27 cell growth in a cell viability assay.

[3] = tested on: HCC38; type: functional, cell-based; conditions: Homo sapiens;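 further: cell viability assay on the human HCC38 cell line, with IC50 marking the concentration that inhibits cell growth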
Description: SANGER: Inhibition of human HCC38 cell growth in a cell viability assay.

[4] = tested on: CAL-120; type: functional, cell-based; conditions: Homo sapiens;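 further: cell growth inhibition, read out as cell viability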
Description: SANGER: Inhibition of human CAL-120 cell growth in a cell viability assay.

[5] = tested on: U-251; type: functional, cell-based; conditions: Homo sapiens;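 further: growth inhibition of human U-251 cells, read out through a cell viability assay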
Description: SANGER: Inhibition of human U251 cell growth in a cell viability assay.

[6] = tested on: MDA-MB-175-VII; type: functional, cell-based; conditions: Homo sapiens
[7] = tested on: C3A; type: functional, cell-based; conditions: Homo sapiens;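 further: growth inhibition of C3A human cells, quantified with a cell viability readout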
Description: SANGER: Inhibition of human C3A cell growth in a cell viability assay.

[8] = tested on: NCI-H661; type: functional, cell-based; conditions: Homo sapiens;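 further: cell viability assay read-out, IC50 being the concentration that inhibits growth of the cells by half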
Description: SANGER: Inhibition of human NCI-H661 cell growth in a cell viability assay.

[9] = tested on: YAPC; type: functional, cell-based; conditions: Homo sapiens;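 further: growth inhibition of YAPC cells, measured with a cell viability assay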
Description: SANGER: Inhibition of human YAPC cell growth in a cell viability assay.

[10] = tested on: G-361; type: functional, cell-based; conditions: Homo sapiens
[11] = tested on: HT55; type: functional, cell-based; conditions: Homo sapiens;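 further: cell viability readout measuring growth inhibition of human HT55 cells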
Description: SANGER: Inhibition of human HT55 cell growth in a cell viability assay.

[12] = tested on: NCI-H441; type: functional, cell-based; conditions: Homo sapiens;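 further: growth inhibition of NCI-H441 cells, read out with a cell viability assay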
Description: SANGER: Inhibition of human NCI-H441 cell growth in a cell viability assay.

[13] = tested on: OE33; type: functional, cell-based; conditions: Homo sapiens;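 further: growth inhibition of human OE33 cells, measured by a cell viability assay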
Description: SANGER: Inhibition of human OE33 cell growth in a cell viability assay.

[14] = tested on: NCI-H2087; type: functional, cell-based; conditions: Homo sapiens;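 further: growth inhibition determined with a cell viability readout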
Description: SANGER: Inhibition of human NCI-H2087 cell growth in a cell viability assay.

[15] = tested on: CAPAN-1; type: functional, cell-based; conditions: Homo sapiens;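 further: growth suppression of CAPAN-1 cells, read out by a cell viability assay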
Description: SANGER: Inhibition of human CAPAN-1 cell growth in a cell viability assay.

[16] = tested on: H4; type: functional, cell-based; conditions: Homo sapiens
Description: SANGER: Inhibition of human H4 cell growth in a cell viability assay.

[17] = tested on: CAL-33; type: functional, cell-based; conditions: Homo sapiens;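 further: growth inhibition of CAL-33 cells, read out with a cell viability assay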
Description: SANGER: Inhibition of human CAL-33 cell growth in a cell viability assay.

[18] = tested on: NCI-H727; type: functional, cell-based; conditions: Homo sapiens;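 further: growth inhibition of human NCI-H727 cells, read out with a cell viability assay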
Description: SANGER: Inhibition of human NCI-H727 cell growth in a cell viability assay.

[19] = tested on: SNU-423; type: functional, cell-based; conditions: Homo sapiens
Description: SANGER: Inhibition of human SNU-423 cell growth in a cell viability assay.

[20] = tested on: LK-2; type: functional, cell-based; conditions: Homo sapiens;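 further: growth inhibition of LK-2 cells, read out with a viability assay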
Description: SANGER: Inhibition of human LK-2 cell growth in a cell viability assay.

[21] = tested on: S-117; type: functional, cell-based; conditions: Homo sapiens
Description: SANGER: Inhibition of human S-117 cell growth in a cell viability assay.

[22] = tested on: IGROV-1; type: functional, cell-based; conditions: Homo sapiens;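 further: reduction of IGROV-1 cell growth, read out with a viability assay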
Description: SANGER: Inhibition of human IGROV-1 cell growth in a cell viability assay.

[23] = tested on: HT-1080; type: functional, cell-based; conditions: Homo sapiens
Description: SANGER: Inhibition of human HT-1080 cell growth in a cell viability assay.

[24] = tested on: RERF-LC-MS; type: functional, cell-based; conditions: Homo sapiens;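 further: growth inhibition of human RERF-LC-MS cells, read out by a cell viability assay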
Description: SANGER: Inhibition of human RERF-LC-MS cell growth in a cell viability assay.

[25] = tested on: SW837; type: functional, cell-based; conditions: Homo sapiens;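 further: growth inhibition of SW837 cells, determined with a cell viability assay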
Description: SANGER: Inhibition of human SW837 cell growth in a cell viability assay.

[26] = tested on: CAL-12T; type: functional, cell-based, Homo sapiens;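 further: growth inhibition of human CAL-12T cells, read out with a cell viability assay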
Description: SANGER: Inhibition of human CAL-12T cell growth in a cell viability assay.

[27] = tested on: UO-31; type: functional, cell-based; conditions: Homo sapiens;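 further: cell viability assay measuring inhibition of cell growth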
Description: SANGER: Inhibition of human U031 cell growth in a cell viability assay.

[28] = tested on: SCC-4; type: functional, cell-based; conditions: Homo sapiens;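 further: growth inhibition of human SCC-4 cells, read out as cell viability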
Description: SANGER: Inhibition of human SCC-4 cell growth in a cell viability assay.

[29] = tested on: SAOS-2; type: functional, cell-based; conditions: Homo sapiens;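 further: growth inhibition of human Saos-2 cells determined by a cell viability assay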
Description: SANGER: Inhibition of human Saos-2 cell growth in a cell viability assay.

[30] = tested on: SW1088; type: functional, cell-based; conditions: Homo sapiens;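 further: growth inhibition of human SW1088 cells, read out by a cell viability assay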
Description: SANGER: Inhibition of human SW1088 cell growth in a cell viability assay.

[31] = tested on: LU-99A; type: functional, cell-based; conditions: Homo sapiens;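 further: growth inhibition of LU-99A cells, read out with a cell viability assay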
Description: SANGER: Inhibition of human LU-99A cell growth in a cell viability assay.

[32] = tested on: HOS; type: functional, cell-based; conditions: Homo sapiens;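 further: growth inhibition of human HOS cells, read out with a cell viability assay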
Description: SANGER: Inhibition of human HOS cell growth in a cell viability assay.

[33] = tested on: A-427; type: functional, cell-based; conditions: Homo sapiens;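 further: growth inhibition of human A-427 cells, read out by a cell viability assay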
Description: SANGER: Inhibition of human A427 cell growth in a cell viability assay.

[34] = tested on: MKN-45; type: functional, cell-based; conditions: Homo sapiens;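 further: growth inhibition of human MKN-45 cells, measured with a cell viability assay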
Description: SANGER: Inhibition of human MKN45 cell growth in a cell viability assay.

[35] = tested on: A 172; type: functional, cell-based; conditions: Homo sapiens;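 further: growth inhibition of A172 cells, measured with a cell viability readout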
Description: SANGER: Inhibition of human A172 cell growth in a cell viability assay.

[36] = tested on: DU-145; type: functional, cell-based; conditions: Homo sapiens
Description: SANGER: Inhibition of human DU-145 cell growth in a cell viability assay.

[37] = tested on: NCI-H596; type: functional, cell-based; conditions: Homo sapiens;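 further: growth inhibition of NCI-H596 cells, read out with a cell viability assay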
Description: SANGER: Inhibition of human NCI-H596 cell growth in a cell viability assay.

[38] = tested on: A-431; type: functional, cell-based; conditions: Homo sapiens;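 further: growth inhibition of A-431 cells, determined with a cell viability read-out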
Description: SANGER: Inhibition of human A431 cell growth in a cell viability assay.

[39] = tested on: MDA-MB-415; type: functional, cell-based; conditions: Homo sapiens
[40] = tested on: 8305C; type: functional, cell-based; conditions: Homo sapiens
Description: SANGER: Inhibition of human 8305C cell growth in a cell viability assay.

[41] = tested on: DK-MG; type: functional, cell-based; conditions: Homo sapiens;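 further: growth inhibition of DK-MG cells, read out with a cell viability assay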
Description: SANGER: Inhibition of human DK-MG cell growth in a cell viability assay.

[42] = tested on: A2780; type: functional, cell-based; conditions: Homo sapiens;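 further: growth inhibition of A2780 cells, read out with a cell viability assay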
Description: SANGER: Inhibition of human A2780 cell growth in a cell viability assay.

[43] = tested on: COR-L105; type: functional, cell-based; conditions: Homo sapiens;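 further: cell growth inhibition determined with a viability assay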
Description: SANGER: Inhibition of human COR-L105 cell growth in a cell viability assay.

[44] = tested on: Hs-578T; type: functional, cell-based; conditions: Homo sapiens
Description: SANGER: Inhibition of human Hs-578-T cell growth in a cell viability assay.

[45] = tested on: ESS-1; type: functional, cell-based; conditions: Homo sapiens;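 further: growth inhibition of human ESS-1 cells, read out by a cell viability assay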
Description: SANGER: Inhibition of human ESS-1 cell growth in a cell viability assay.

[46] = tested on: G-402; type: functional, cell-based; conditions: Homo sapiens
Description: SANGER: Inhibition of human G-402 cell growth in a cell viability assay.

[47] = tested on: DMS-273; type: functional, cell-based; conditions: Homo sapiens
Description: SANGER: Inhibition of human DMS-273 cell growth in a cell viability assay.

[48] = tested on: 5637; type: functional, cell-based; conditions: Homo sapiens
Description: SANGER: Inhibition of human 5637 cell growth in a cell viability assay.

[49] = tested on: RT-112; type: functional, cell-based; conditions: Homo sapiens
Description: SANGER: Inhibition of human RT-112 cell growth in a cell viability assay.

## Cn1cc(/C=C2\C(=O)Nc3cccnc32)c2ccccc21
[1]
  IC50: > 2000 nM
[2]
  IC50: > 2000 nM
[3]
  IC50: > 2000 nM
[4]
  IC50: > 2000 nM
[5]
  IC50: > 2000 nM
[6]
  IC50: > 2000 nM
[7]
  IC50: > 2000 nM
[8]
  IC50: > 2000 nM
[9]
  IC50: > 2000 nM
[10]
  IC50: 211 nM
[11]
  IC50: > 2000 nM
[12]
  IC50: > 2000 nM
[13]
  IC50: > 2000 nM
[14]
  IC50: > 2000 nM
[15]
  IC50: > 2000 nM
[16]
  IC50: > 2000 nM
[17]
  IC50: > 2000 nM
[18]
  IC50: > 2000 nM
[19]
  IC50: > 2000 nM
[20]
  IC50: > 2000 nM
[21]
  IC50: > 2000 nM
[22]
  IC50: > 2000 nM
[23]
  IC50: > 2000 nM
[24]
  IC50: > 2000 nM
[25]
  IC50: > 2000 nM
[26]; Homo sapiens, CAL-12T
  IC50: > 2000 nM
[27]
  IC50: > 2000 nM
[28]
  IC50: > 2000 nM
[29]
  IC50: > 2000 nM
[30]
  IC50: > 2000 nM
[31]
  IC50: > 2000 nM
[32]
  IC50: > 2000 nM
[33]
  IC50: > 2000 nM
[34]
  IC50: > 2000 nM
[35]
  IC50: > 2000 nM
[36]
  IC50: > 2000 nM
[37]
  IC50: > 2000 nM
[38]
  IC50: > 2000 nM
[39]
  IC50: > 2000 nM
[40]
  IC50: > 2000 nM
[41]
  IC50: > 2000 nM
[42]
  IC50: > 2000 nM
[43]
  IC50: 494 nM
[44]
  IC50: > 2000 nM
[45]
  IC50: > 2000 nM
[46]
  IC50: > 2000 nM
[47]
  IC50: > 2000 nM
[48]
  IC50: > 2000 nM
[49]
  IC50: > 2000 nM

## O=c1cc(N2CCOCC2)oc2c(-c3cccc4c3sc3ccccc34)cccc12
[1]
  IC50: > 2000 nM
[2]
  IC50: > 2000 nM
[3]
  IC50: > 2000 nM
[4]
  IC50: > 2000 nM
[5]
  IC50: > 2000 nM
[6]
  IC50: > 2000 nM
[7]
  IC50: > 2000 nM
[8]
  IC50: > 2000 nM
[9]
  IC50: > 2000 nM
[10]
  IC50: > 2000 nM
[11]
  IC50: > 2000 nM
[12]
  IC50: > 2000 nM
[13]
  IC50: > 2000 nM
[14]
  IC50: > 2000 nM
[15]
  IC50: > 2000 nM
[16]
  IC50: > 2000 nM
[17]
  IC50: > 2000 nM
[18]
  IC50: > 2000 nM
[19]
  IC50: > 2000 nM
[20]
  IC50: > 2000 nM
[21]
  IC50: > 2000 nM
[22]
  IC50: > 2000 nM
[23]
  IC50: > 2000 nM
[24]
  IC50: > 2000 nM
[25]
  IC50: > 2000 nM
[26]; cal-12t
  IC50: > 2000 nM
[27]
  IC50: > 2000 nM
[28]
  IC50: > 2000 nM
[29]
  IC50: > 2000 nM
[30]
  IC50: > 2000 nM
[31]
  IC50: > 2000 nM
[32]
  IC50: > 2000 nM
[33]
  IC50: > 2000 nM
[34]
  IC50: > 2000 nM
[35]
  IC50: 153 nM
[36]
  IC50: > 2000 nM
[37]
  IC50: > 2000 nM
[38]
  IC50: > 2000 nM
[39]
  IC50: > 2000 nM
[40]
  IC50: > 2000 nM
[41]
  IC50: > 2000 nM
[42]
  IC50: > 2000 nM
[43]
  IC50: > 2000 nM
[44]
  IC50: > 2000 nM
[45]
  IC50: > 2000 nM
[46]
  IC50: > 2000 nM
[47]
  IC50: > 2000 nM
[48]
  IC50: > 2000 nM
[49]
  IC50: > 2000 nM

## COc1cc(Nc2c(C#N)cnc3cc(OCCCN4CCN(C)CC4)c(OC)cc23)c(Cl)cc1Cl [BOSUTINIB]
[1]
  IC50: > 2000 nM
[2]
  IC50: > 2000 nM
[3]
  IC50: > 2000 nM
[4]
  IC50: > 2000 nM
[5]
  IC50: > 2000 nM
[6]
  IC50: > 2000 nM
[7]
  IC50: > 2000 nM
[8]
  IC50: > 2000 nM
[9]
  IC50: > 2000 nM
[10]
  IC50: > 2000 nM
[11]
  IC50: > 2000 nM
[12]
  IC50: > 2000 nM
[13]
  IC50: > 2000 nM
[14]
  IC50: > 2000 nM
[15]
  IC50: > 2000 nM
[16]
  IC50: 1240 nM
[17]
  IC50: 1190 nM
[18]
  IC50: > 2000 nM
[19]
  IC50: > 2000 nM
[20]
  IC50: > 2000 nM
[21]
  IC50: > 2000 nM
[22]
  IC50: 488 nM
[23]
  IC50: 553 nM
[24]
  IC50: > 2000 nM
[25]
  IC50: > 2000 nM
[26]; Homo sapiens, CAL-12T
  IC50: > 2000 nM
[27]
  IC50: > 2000 nM
[28]
  IC50: > 2000 nM
[29]
  IC50: > 2000 nM
[30]
  IC50: > 2000 nM
[31]
  IC50: > 2000 nM
[32]
  IC50: > 2000 nM
[33]
  IC50: > 2000 nM
[34]
  IC50: > 2000 nM
[35]
  IC50: > 2000 nM
[36]
  IC50: > 2000 nM
[37]
  IC50: > 2000 nM
[38]
  IC50: > 2000 nM
[39]
  IC50: > 2000 nM
[40]
  IC50: > 2000 nM
[41]
  IC50: > 2000 nM
[42]
  IC50: > 2000 nM
[43]
  IC50: 1000 nM
[44]
  IC50: > 2000 nM
[45]
  IC50: > 2000 nM
[46]
  IC50: > 2000 nM
[47]
  IC50: > 2000 nM
[48]
  IC50: 1140 nM
[49]
  IC50: > 2000 nM

## C[C@]12O[C@H](C[C@]1(O)CO)n1c3ccccc3c3c4c(c5c6ccccc6n2c5c31)CNC4=O [LESTAURTINIB]
[1]
  IC50: 151 nM
[2]
  IC50: 190 nM
[3]
  IC50: > 2000 nM
[4]
  IC50: 336 nM
[5]
  IC50: > 2000 nM
[6]
  IC50: 1140 nM
[7]
  IC50: > 2000 nM
[8]
  IC50: > 2000 nM
[9]
  IC50: > 2000 nM
[10]
  IC50: 221 nM
[11]
  IC50: > 2000 nM
[12]
  IC50: > 2000 nM
[13]
  IC50: > 2000 nM
[14]
  IC50: > 2000 nM
[15]
  IC50: > 2000 nM
[16]
  IC50: 13.5 nM
[17]
  IC50: 730 nM
[18]
  IC50: 768 nM
[19]
  IC50: 731 nM
[20]
  IC50: 428 nM
[21]
  IC50: 1120 nM
[22]
  IC50: 452 nM
[23]
  IC50: 40.3 nM
[24]
  IC50: 812 nM
[25]
  IC50: > 2000 nM
[26]; Homo sapiens, CAL-12T
  IC50: 870 nM
[27]
  IC50: > 2000 nM
[28]
  IC50: 1360 nM
[29]
  IC50: 635 nM
[30]
  IC50: 874 nM
[31]
  IC50: 1010 nM
[32]
  IC50: 232 nM
[33]
  IC50: 23.4 nM
[34]
  IC50: 1120 nM
[35]
  IC50: 1940 nM
[36]
  IC50: > 2000 nM
[37]
  IC50: > 2000 nM
[38]
  IC50: 387 nM
[39]
  IC50: > 2000 nM
[40]
  IC50: > 2000 nM
[41]
  IC50: 1100 nM
[42]
  IC50: 94 nM
[43]
  IC50: > 2000 nM
[44]
  IC50: 997 nM
[45]
  IC50: 682 nM
[46]
  IC50: 1100 nM
[47]
  IC50: > 2000 nM
[48]
  IC50: 82.1 nM
[49]
  IC50: 464 nM
